Results taken from patent US20220125746A1, “METHOD OF PREVENTING OR TREATING TREATMENT-INDUCED GASTROINTESTINAL INJURY” (priority 2019, published 2022).
Where a name gives a salt, the structure may show the parent alone.

Experiments:
PUMA/BCL-xL = biological target: T1, PUMA/BCL-xL (Homo sapiens, UniProt Q9BXH1); test: Immunoprecipitation of HA-PUMA / V5-Bcl-xL from 293 lysates; assay type: binding; conditions: 25 uM, 15 min, anti-HA immunoprecipitation, western blot
T1 construct: expressed in transfected cells; host or cells: HEK293 (human embryonic kidney 293) cells, Lipofectamine 2000; lysates used
T1 sequence (Q9BXH1 1-193): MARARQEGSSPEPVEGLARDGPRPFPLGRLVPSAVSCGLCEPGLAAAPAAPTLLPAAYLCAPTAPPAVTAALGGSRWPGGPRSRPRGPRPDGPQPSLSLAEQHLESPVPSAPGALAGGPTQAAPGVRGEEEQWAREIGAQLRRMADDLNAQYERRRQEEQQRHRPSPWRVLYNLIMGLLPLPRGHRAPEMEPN
Procedure: (FIG. 10A) Structure of the PUMA inhibitor lead compound (PUMAi). (FIG. 10B) Lysates of 293 cells transfected with individual plasmids for 24 hours were mixed in the indicated combinations. Lysates were incubated with vehicle or PUMA inhibitor (PUMAi, 25 μM) for 15 min before immunoprecipitation with an anti-HA antibody. The HA-bound proteins and input were analyzed by western blotting. (FIG. 10C) Lysates of 293 cells transfected with individual plasmids for 24 h were mixed in the indicated combinations. Lysates were incubated with vehicle or PUMA Inhibitor (PUMAi, 25 μM) for 15 min before immunoprecipitation with an anti-HA antibody. The HA-bound proteins and input were analyzed by western blotting. (FIG. 10D) Indicated colon cancer cell lines were treated with camptothecin (CPT, 500 nM) for 24 h. HCT 116 cells and PUMA KO HCT 116 cells have WT p53, others have no (KO) or mutant p53. Apoptosis was measured by nuclear fragmentation assay. Values are mean+SEM; n=3 independent experiments. (FIG. 10E) Cells were treated as in D for 24 h and analyzed by western blotting. Representative results are shown, and similar results were obtained in at least three independent experiments. […]

WT mice = test: Survival after total body irradiation; assay type: in vivo, mouse; conditions: 9.5 and 15 gray TBI; PUMAi 10 mg/kg 30 min before and after, then daily for 4 days
Procedure: (FIG. 12A) and (FIG. 12B) Survival of WT mice treated with 3 daily doses of 180 mg/kg/day (A) and 250 mg/kg/day (B) CPT-11, respectively, on days 0, 1, and 2. PUMAi (10 mg/kg) was given 2 hours before each dose of CPT-11 and 20 hours after the final dose. (FIG. 12C) and (FIG. 12D) Survival of WT mice after total body irradiation (TBI) at 9.5 Gy (FIG. 12C) and 15 Gy (FIG. 12D). PUMAi (10 mg/kg) was given 30 min before and 30 min after TBI, and then daily for 4 days. Survivors at 9.5 Gy TBI in C were sacrificed on day 40 with no obvious health problems. P values were calculated by log-rank test.

[1] = system: Lewis lung carcinoma (LLC) tumors; test: LLC tumor-bearing mice treated with CPT-11 six times over 2 weeks; assay type: in vivo, mouse
Procedure: For tumor experiments, 4 million LLC cells [American Type Culture Collection (ATCC)] were injected into the flanks of WT and Puma KO mice and allowed to grow for 11 days. Mice were then treated with CPT-11 (200 mg/kg) three times per week for 2 weeks. PUMAi (10 mg/kg) or vehicle control was administered by intraperitoneal injection 2 hours before and 20 hours after each dose of CPT-11. Mice were sacrificed 4 hours after the final CPT-11 treatment.
For tumor experiments, mice were treated with CPT-11 three times per week for two weeks. Mice receiving PUMAi were treated 2 hours before each dose of CPT-11 and 20 hours after. Mice were sacrificed four hours after the final CPT-11 treatment (FIG. 13A). Tumor volumes were measured with calipers and calculated as volume=(length x width2)/2. Mice were 7-9 weeks old, and roughly equal numbers of male and female animals were used. To account for variations in starting body weights, the values in FIGS. 3 and 4 are expressed as a percentage of the respective mouse weights at the time of the first CPT-11 treatment.
Immediately after sacrifice, about 10-cm portion of the jejunum was removed and carefully rinsed with ice-cold saline. The tissue was opened longitudinally and tacked to a foam board for fixation overnight in 10% formalin. Tissues were then rolled up into “swiss rolls” and embedded in paraffin. For tumor analysis, flank tumors were removed, measured, and cut into pieces for either formalin fixation or flash freezing in a dry ice/ethanol bath. Tissue sections (5 um) were deparaffinized and rehydrated through graded ethanols. Histological analysis was performed by hematoxylin and eosin (H&E) staining.
Average villus height was determined by measuring 40 to 50 villi from different locations of the small intestine, from at least three different animals per group, and reported as means A} SEM. Measurements were made from the top of the crypt to the tip of the villus using 100 Å˜H&E images and SPOT 5.1 Advanced software (Diagnostic Instruments Inc.).
Neutrophil IF. Sections were prepared as described above. […] Sections were then incubated with AlexaFluor-594 goat antirat secondary antibodies (1:200; A11007; Invitrogen) for 1 hour at room temperature and counterstained with VectaShield plus DAPI.

[2] = system: colon cancer cell line HCT-116; test: PUMA-induced apoptosis inhibition in HCT-116
Procedure: PUMAi was added to cells at 25 uM at the same time as CPT.
A minimum of 300 cells per treatment were analyzed in triplicate.

## OCCN1CCN(CC(O)COc2ccc3ccccc3c2)CC1 (stereo not shown) [PUMAi, 1-[4-(2-hydroxyethyl)-1-piperazinyl]-3-(2-naphthyloxy)-2-propanol dihydrochloride]
PUMA/BCL-xL
  inhibition of PUMA/BCL-xL interaction: inhibit interaction of PUMA/BCL-xL
WT mice
  survival after total body irradiation: increased the survival
[1]; PUMAi 10 mg/kg 2 h before and 20 h after each CPT-11 dose
  CPT-11-induced weight loss, intestinal damage and lethality: highly resistant
[1]; PUMAi 10 mg/kg 2 h before and 20 h after each CPT-11 dose, vs vehicle group
  tumor response to CPT-11: comparable tumor response
[1]; WT mice, LLC tumor experiments
  % mice compieting treatment: 100% (5/5)
[1]; daily inspections throughout the study
  grooming and physical activity: improved grooming and physical activity
[2]
  Apoptosis inhibition of HCT-116: 17%
